In this test the test system is Cellular Release of Amyloid Peptide 1-40. The test can be described thus: Test 4: Inhibition of Cellular Release of Amyloid Peptide 1-40. Format: cell-based, Chinese hamster. The settings on record: Cricetulus griseus, 24 h; read-out: Amyloid-β1-40 release IC50. The method, then:
Chinese hamster ovary cells are transfected with the human gene for amyloid precursor protein. The cells are plated at a density of 8000 cells/well into 96-well microtiter plates and cultivated for 24 hours in DMEM cell culture medium containing 10% FCS. The test compound is added to the cells at various concentrations, and the cells are cultivated for 24 hours in the presence of the test compound.

Structures can show the parent of a compound that is named as a salt.

The IC50 is the concentration at which inhibition is half-maximal.

Consider `C[C@@]1(c2cccc(NC(=O)c3ccc(Br)cn3)n2)COCC(N)=N1` [Example 1, 5-Bromo-pyridine-2-carboxylic acid [6-((R)-5-amino-3-methyl-3,6-dihydro-2H-[1,4]-oxazin-3-yl)-pyridin-2-yl]-amide], for which the IC50 was 41 nM.
With `NC1=NC(CF)(c2cccc(NC(=O)c3ccc(Cl)cn3)n2)COC1` (stereo not shown) [Example 3, 5-{6-[(5-Chloro-pyridine-2-carbonyl)-amino]-pyridin-2-yl}-5-fluoromethyl-5,6-dihydro-2H-[1,4]oxazin-3-yl-ammonium Trifluoro Acetate] the figure was 140 nM; with `NC1=NC(CF)(c2cccc(NC(=O)c3ccc(Br)cn3)n2)COC1` (stereo not shown) [Example 4, 5-Bromo-pyridine-2-carboxylic acid [6-(5-amino-3-fluoromethyl-3,6-dihydro-2H-[1,4]oxazin-3-yl)-pyridin-2-yl]-amide], 98 nM.
With `Cc1cc(C#N)cnc1C(=O)Nc1cccc(C2(CF)COCC(N)=N2)n1` (stereo not shown) [Example 5, 5-Cyano-3-methyl-pyridine-2-carboxylic acid [6-(5-amino-3-fluoromethyl-3,6-dihydro-2H-[1,4]oxazin-3-yl)-pyridin-2-yl]-amide] the figure was 40 nM.
The value for `[2H]c1nc(C(=O)Nc2cccc(C3(CF)COCC(N)=N3)n2)c(C([2H])([2H])[2H])c([2H])c1Cl` (stereo not shown) [Example 6, 4,6-Dideutero-5-chloro-3-trideuteromethyl-pyridine-2-carboxylic acid [6-(5-amino-3-fluoromethyl-3,6-dihydro-2H-[1,4]oxazin-3-yl)-pyridin-2-yl]-amide] was 63 nM.
For the molecule `Cc1cc(C#N)cnc1C(=O)Nc1cccc([C@]2(C)CO[C@@](C)(C(F)(F)F)C(N)=N2)n1` [Example 8, 5-Cyano-3-methyl-pyridine-2-carboxylic Acid [6-((3R,6R)-5-amino-3,6-dimethyl-6-trifluoro-methyl-3,6-dihydro-2H-[1,4]oxazin-3-yl)-pyridin-2-yl]-amide], the half-maximal inhibitory concentration (IC50) worked out at 6 nM.
As to `C[C@]1(c2cccc(NC(=O)c3ccc(C#N)cn3)n2)CO[C@@](C)(C(F)(F)F)C(N)=N1` [Example 9, 5-Cyano-pyridine-2-carboxylic acid [6-((3S,6R)-5-amino-3,6-dimethyl-6-trifluoromethyl-3,6-dihydro-2H-[1,4]oxazin-3-yl)-pyridin-2-yl]-amide], the half-maximal inhibitory concentration (IC50) was 1900 nM.
Regarding `C[C@@]1(c2cccc(NC(=O)c3ccc(C#N)cn3)n2)CO[C@@](C)(C(F)(F)F)C(N)=N1` [Example 10, 5-Cyano-pyridine-2-carboxylic acid [6-((3R,6R)-5-amino-3,6-dimethyl-6-trifluoromethyl-3,6-dihydro-2H-[1,4]oxazin-3-yl)-pyridin-2-yl]-amide], the concentration for half-maximal inhibition (IC50) is 17 nM.
`Cc1cc(C#N)cnc1C(=O)Nc1ccc(F)c([C@]2(C)CO[C@@](C)(C(F)(F)F)C(N)=N2)n1` [Example 11, 5-Cyano-3-methyl-pyridine-2-carboxylic Acid [6-((3R,6R)-5-amino-3,6-dimethyl-6-trifluoromethyl-3,6-dihydro-2H-[1,4]oxazin-3-yl)-5-fluoro-pyridin-2-yl]-amide]: the IC50 stood at 2 nM.
The value for `Cc1cc(C#N)cnc1C(=O)Nc1ccc(F)c([C@@]2(C)CO[C@@](C)(C(F)(F)F)C(N)=N2)n1` [Example 12, 5-Cyano-3-methyl-pyridine-2-carboxylic Acid [6-((3S,6R)-5-amino-3,6-dimethyl-6-trifluoromethyl-3,6-dihydro-2H-[1,4]oxazin-3-yl)-5-fluoro-pyridin-2-yl]-amide] was 280 nM; that for `[2H]c1nc(C(=O)Nc2cc(C3(CF)COCC(N)=N3)ccn2)c(C([2H])([2H])[2H])c([2H])c1Cl` (stereo not shown) [Example 13, 5-{2-[(5-Chloro-4,6-dideuterio-3-trideuteromethyl-pyridine-2-carbonyl)-amino]-pyridin-4-yl}-5-fluoromethyl-5,6-dihydro-2H-[1,4]oxazin-3-yl-ammonium Acetate] was 550 nM; that for `Cc1cc(C#N)cnc1C(=O)Nc1cc([C@@]2(C)CO[C@@](C)(C(F)(F)F)C(N)=N2)c(F)cn1` [Example 17, 5-Cyano-3-methyl-pyridine-2-carboxylic acid [4-((3S,6R)-5-amino-3,6-dimethyl-6-trifluoromethyl-3,6-dihydro-2H-[1,4]oxazin-3-yl)-5-fluoro-pyridin-2-yl]-amide] was 4800 nM.
With `NC1=NC(CF)(c2cc(NC(=O)c3ccc(Br)cn3)cnc2Cl)COC1` (stereo not shown) [Example 18, 5-Bromo-pyridine-2-carboxylic acid [5-(5-amino-3-fluoromethyl-3,6-dihydro-2H-[1,4]oxazin-3-yl)-6-chloro-pyridin-3-yl]-amide hydrochloride] the figure was 15 nM.
For `C[C@@]1(c2cccc(NC(=O)c3ncc(C#N)cc3N)n2)CO[C@@](C)(C(F)(F)F)C(N)=N1` [Example 19, 3-Amino-5-cyano-pyridine-2-carboxylic acid [6-((3R,6R)-5-amino-3,6-dimethyl-6-trifluoromethyl-3,6-dihydro-2H-[1,4]oxazin-3-yl)-pyridin-2-yl]-amide], the IC50 is 48 nM.
The value for `C[C@@]1(c2cccc(NC(=O)c3ncc(C#N)cc3Cl)n2)CO[C@@](C)(C(F)(F)F)C(N)=N1` [Example 20, 3-Chloro-5-cyano-pyridine-2-carboxylic acid [6-((3R,6R)-5-amino-3,6-dimethyl-6-trifluoromethyl-3,6-dihydro-2H-[1,4]oxazin-3-yl)-pyridin-2-yl]-amide] was 5 nM.
For the molecule `[2H]c1nc(C(=O)Nc2cccc([C@]3(C)CO[C@@](C)(C(F)(F)F)C(N)=N3)n2)c(C([2H])([2H])[2H])c([2H])c1Cl` [Example 21, 5-Chloro-4,6-dideuterio-3-trideuteriomethyl-pyridine-2-carboxylic acid [6-((3R,6R)-5-amino-3,6-dimethyl-6-trifluoromethyl-3,6-dihydro-2H-[1,4]oxazin-3-yl)-pyridin-2-yl]-amide], the IC50 is 110 nM.
With `C[C@@]1(c2cccc(NC(=O)c3ncc(Br)cc3Cl)n2)CO[C@@](C)(C(F)(F)F)C(N)=N1` [Example 22, 5-Bromo-3-chloro-pyridine-2-carboxylic acid [6-((3R,6R)-5-amino-3,6-dimethyl-6-trifluoromethyl-3,6-dihydro-2H-[1,4]oxazin-3-yl)-pyridin-2-yl]-amide] the figure was 29 nM; with `COc1cnc(C(=O)Nc2ccc(F)c([C@]3(C)CO[C@@](C)(C(F)(F)F)C(N)=N3)n2)c(C)c1` [Example 25, 5-Methoxy-3-methyl-pyridine-2-carboxylic acid [6-((3R,6R)-5-amino-3,6-dimethyl-6-trifluoromethyl-3,6-dihydro-2H-[1,4]oxazin-3-yl)-5-fluoro-pyridin-2-yl]amide], 76 nM; with `Cc1cc(OC(F)F)cnc1C(=O)Nc1ccc(F)c([C@]2(C)CO[C@@](C)(C(F)(F)F)C(N)=N2)n1` [Example 29, 5-Difluoromethoxy-3-methyl-pyridine-2-carboxylic acid [6-((3R,6R)-5-amino-3,6-dimethyl-6-trifluoromethyl-3,6-dihydro-2H-[1,4]oxazin-3-yl)-5-fluoro-pyridin-2-yl]amide], 24 nM.

The values above are taken from patent publication US10683287B2, “Heterocyclic derivatives and their use in the treatment of neurological disorders” (Novartis AG, priority 2011, dated 2020).
